Results taken from US12673026B2, “Liposomal compositions and methods of use thereof for improved stability, bioavailability and sustained release” (SpecNova LLC, priority 2023, dated 2026).

How the values were obtained:
Caco-2 cells [1] = test: CoQ10 Caco-2 permeability; format: in vitro ADME, Human; conditions: Caco-2 passage 38, A --> B
Description: (§1) The study was performed using Caco-2 cells at a passage number of 38 seeded on a 24-well transwell plate. […] Instead, the formulation was added to the HBSS buffer at a concentration of 1 mg/mL, vortexed, and centrifuged for 15 min at 10,000 G-force. The supernatant was used for permeability assessment. For pure compound, the permeability study was performed at 10 μM final concentration. Compound solutions were added to the apical compartments of the transwell and blank buffer on the basolateral side. FIG. 9 provides a visual summary of this process.

[2] = CoQ10 Caco-2 permeability; format: in vitro ADME, Human; conditions: human; Caco-2 passage 38; formulation: supernatant of 1 mg/mL in HBSS; pure compound 10 μM; apical to basolateral
Description: as §1

Caco-2 cells [3] = test: Carnosine permeability across Caco-2 cells; format: in vitro ADME, Human; conditions: Caco-2 passage 26, A-->B
Description: (§2) The study was performed using Caco-2 cells at a passage number of 26 seeded on a 24-well transwell plates. The permeability of carnosine was studied at a concentration of 20 μM. Compounds were solubilized in HBSS and added to apical compartment of transwells and blank buffer on basolateral side.

[4] = Carnosine permeability across Caco-2 cells; format: in vitro ADME, Human; conditions: human; Caco-2 passage 26; 20 μM in HBSS; apical to basolateral
Description: as §2

[5] = L-carnosine stability in simulated gastric and intestinal fluids; format: physicochemical; conditions: for % Remaining: 10 μM, 37.0° C.
Description: Three fluids were simulated: fasted (pH 1.2) and fed (pH 3.5) simulated gastric fluid (SGF) and simulated intestinal fluid (SIF) (pH 6.8). […] A zero time point was taken after adding the appropriate stock to each fluid (N=2) and mixed by pipette. Time points were then taken at 5, 10, 15, 30, 60, 90, and 120 minutes. These were quenched with ACN and kept on ice. The samples were then added to 50% ACN in […] ammonium acetate buffer (pH=3.6) with Verapamil for Internal Standard (IS) and filtered before analysis.
Two concentrations of working stocks were made at 5000 ng/ml and 200 ng/ml. In Table 12, diluent is 50% ACN in […] ammonium acetate buffer (pH=3.6). The total analytical volume was 200 μL for all standards and samples. Six sets of QCs were used along with the samples and seven calibration standards. All were analyzed by UPLC-MS/MS on the same day as preparation.

Caco-2 cells [6] = test: Quercetin Caco-2 permeability; format: in vitro ADME, Human; conditions: Caco-2 passage 28, A-->B
Description: (§3) The study was performed using Caco-2 cells at a passage number of 28 seeded on a 96-well Transwell plates. Permeability was studied at a concentration of 20 μM. Compounds were solubilized in HBSS and added to apical compartment of the Transwell plate and blank buffer on basolateral side. FIG. 17 provides a visual summary of this process.

[7] = Quercetin Caco-2 permeability; format: in vitro ADME, Human; conditions: human; Caco-2 passage 28; 20 μM in HBSS; apical to basolateral
Description: as §3

Caco-2 cells [8] = test: Berberine chloride Caco-2 permeability; format: in vitro ADME, Human; conditions: Caco-2 passage 38, A --> B
Description: as §1

[9] = Berberine chloride Caco-2 permeability; format: in vitro ADME, Human; conditions: human; Caco-2 passage 38; formulation: supernatant of 1 mg/mL in HBSS; pure compound 10 μM; apical to basolateral
Description: as §1

[10] = Randomized, double-blind, placebo-controlled crossover trial: plasma and leukocyte vitamin C concentration after single dose; format: in vivo, human; conditions: single 500 mg dose; p<0.001
Description: Venous blood samples were collected 0, 0.5-, 1-, 1.5-, 2-, 3-, 4-, 6-, 8-, 12-, and 24-hours after ingestion and were analyzed for plasma and leukocyte vitamin C concentration.

COC1=C(OC)C(=O)C(C/C=C(\C)CC/C=C(\C)CC/C=C(\C)CC/C=C(\C)CC/C=C(\C)CC/C=C(\C)CC/C=C(\C)CC/C=C(\C)CC/C=C(\C)CCC=C(C)C)=C(C)C1=O [CoQ10 Reference Standard, CoQ10]
Permeability Class (High/Low) (Caco-2 cells [1]): Low | Papp A→B at 10 μM [2]: 0.2 ± 0.13 ×10⁻⁶ cm/s

NCCC(=O)N[C@@H](Cc1cnc[nH]1)C(=O)O [Carnosine, L-carnosine]
Permeability Class (High/Low) (Caco-2 cells [3]): Low | Papp A→B at 20 μM [4]: 3.05 ± 0.62 ×10⁻⁶ cm/s | % Remaining ([5]; Fasted SGF (pH 1.2), 0 minutes): 100% | % Remaining ([5]; Fasted SGF (pH 1.2), 5 minutes): 100.3% | % Remaining ([5]; Fasted SGF (pH 1.2), 10 minutes): 95.5% | % Remaining ([5]; Fasted SGF (pH 1.2), 15 minutes): 97.5% | % Remaining ([5]; Fasted SGF (pH 1.2), 30 minutes): 94% | % Remaining ([5]; Fasted SGF (pH 1.2), 60 minutes): 99.4% | % Remaining ([5]; Fasted SGF (pH 1.2), 90 minutes): 101.5% | % Remaining ([5]; Fasted SGF (pH 1.2), 120 minutes): 96.5% | % Remaining ([5]; Fed SGF (pH 3.5), 0 minutes): 100% | % Remaining ([5]; Fed SGF (pH 3.5), 5 minutes): 103.9% | % Remaining ([5]; Fed SGF (pH 3.5), 10 minutes): 97.6% | % Remaining ([5]; Fed SGF (pH 3.5), 15 minutes): 91.9% | % Remaining ([5]; Fed SGF (pH 3.5), 30 minutes): 96.5% | % Remaining ([5]; Fed SGF (pH 3.5), 60 minutes): 102.2% | % Remaining ([5]; Fed SGF (pH 3.5), 90 minutes): 97.4% | % Remaining ([5]; Fed SGF (pH 3.5), 120 minutes): 97.4% | % Remaining ([5]; SIF (pH 6.8), 0 minutes): 100% | % Remaining ([5]; SIF (pH 6.8), 5 minutes): 96.9% | % Remaining ([5]; SIF (pH 6.8), 10 minutes): 91% | % Remaining ([5]; SIF (pH 6.8), 15 minutes): 89% | % Remaining ([5]; SIF (pH 6.8), 30 minutes): 95.8% | % Remaining ([5]; SIF (pH 6.8), 60 minutes): 103% | % Remaining ([5]; SIF (pH 6.8), 90 minutes): 100.1% | % Remaining ([5]; SIF (pH 6.8), 120 minutes): 99.1% | stability in SGF and SIF ([5]; over 120 minutes): stable

O=c1c(O)c(-c2ccc(O)c(O)c2)oc2cc(O)cc(O)c12 [USP Quercetin, quercetin]
Permeability Class (High/Low) (Caco-2 cells [6]): High | Papp A→B at 20 μM [7]: 8.83 ± 0.17 ×10⁻⁶ cm/s

COc1ccc2cc3[n+](cc2c1OC)CCc1cc2c(cc1-3)OCO2 [Sigma Aldrich Berberine Chloride, Berberine Chloride]
Permeability Class (High/Low) (Caco-2 cells [8]): Low | Papp A→B at 10 μM [9]: 2.17 ± 0.17 ×10⁻⁶ cm/s

O=C1O[C@H]([C@@H](O)CO)C(O)=C1O [VIT C, L-Ascorbic acid]
Cmax and AUC0-24 in plasma and in leukocytes compared to placebo [10]: significantly greater
